Assay results from patent US8822430B2 (Gilead Sciences, Inc., priority 2009, dated 2014).
pEC50: −log10 of the molar value.

tested on: HCV 1b RLuc cells (dicistronic genotype 1b Con1 replicon); assay: Renilla luciferase (RLuc)-based HCV replicon reporter assay; assay type: cell-based, HCV genotype 1b; details: Hepatitis C virus, 72 h, HCV 1b RLuc replicon, 72 hours; read-out: Activity (antiviral potency [EC50])
How it was run: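 EC50 values were calculated by non-linear regression of Renilla luciferase signal from lysed cells after 72 h of compound exposure. Cells harboured a genotype 1b Con1 dicistronic replicon encoding RLuc. Compounds were serially diluted in DMSO from 10 mM stocks into culture media.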

SMILES	pEC50
COC(=O)N[C@H](C(=O)N1CC2(CC2)C[C@H]1c1ncc(-c2ccc3cc(-c4ccc(-c5cnc([C@@H]6[C@H]7CC[C@H](C7)N6C(=O)[C@@H](NC(=O)OC)C6CCOCC6)[nH]5)cc4)ccc3c2)[nH]1)C(C)C	10.94
COC(=O)N[C@H](C(=O)N1CCC[C@H]1c1ncc(C#Cc2ccc(-c3ccc4nc([C@@H]5CCCN5C(=O)[C@@H](NC(=O)OC)C(C)C)[nH]c4c3)cc2)[nH]1)C(C)C	10.77
COC(=O)N[C@H](C(=O)N1CCC[C@H]1c1ncc(-c2ccc(C#Cc3ccc(-c4cnc([C@@H]5CN(C(C)=O)CN5C(=O)[C@@H](NC(=O)OC)C(C)C)[nH]4)cc3)cc2)[nH]1)C(C)C	10.39
COC(=O)N[C@H](C(=O)NC1(c2ncc(-c3ccc(-c4ccc(-c5cnc([C@@H]6CCCN6C(=O)[C@@H](NC(=O)OC)C(C)C)[nH]5)cc4)cc3)[nH]2)CC1)C(C)C	10.06
COC(=O)N[C@H](C(=O)N1CC2(CC2)C[C@H]1c1ncc(-c2ccc3c(c2)C(F)(F)c2cc(-c4c[nH]c([C@@H]5CCCN5C(=O)[C@@H](NC(=O)OC)C5CCOCC5)n4)ccc2-3)[nH]1)C(C)C	10.21
COC(=O)N[C@H](C(=O)N1CCC[C@H]1c1ncc(-c2ccc(N3CCN(c4ccc(-c5cnc([C@@H]6CCCN6C(=O)[C@@H](NC(=O)OC)C(C)C)[nH]5)cc4)CC3)cc2)[nH]1)C(C)C	9.70
COC(=O)N[C@H](C(=O)N1CCC[C@H]1C(=O)Nc1cccc(-c2ccc(-c3cnc([C@@H]4CCCN4C(=O)[C@@H](NC(=O)OC)C(C)C)[nH]3)cc2)c1)C(C)C	9.93
COC(=O)N[C@H](C(=O)N1CCC[C@H]1c1ncc(C#Cc2ccc3cc(-c4cnc([C@@H]5CCCN5C(=O)[C@@H](NC(=O)OC)C(C)C)[nH]4)ccc3c2)[nH]1)C(C)C	10.97
COC(=O)N[C@@H](CC#N)C(=O)N1[C@@H]2CC[C@@H](C2)[C@H]1c1ncc(-c2ccc3cc(-c4ccc(-c5cnc([C@@H]6CCCN6C(=O)[C@@H](NC(=O)OC)C(C)C)[nH]5)cc4)ccc3c2)[nH]1	10.89
COC(=O)N[C@H](C(=O)N1CCC[C@H]1c1ncc(-c2ccc3cc(-c4ccc5nc([C@@H]6CCN6C(=O)[C@H](NC(=O)OC)c6ccccc6)[nH]c5c4)ccc3c2)[nH]1)C(C)C	10.15
COC(=O)N[C@H](C(=O)N1CCC[C@H]1c1ncc(-c2ccc(C#Cc3ccc4nc([C@@H]5CCCN5C(=O)[C@@H](NC(=O)OC)C(C)C)[nH]c4c3)cc2)[nH]1)C(C)C	10.95
COC(=O)N[C@H](C(=O)N1CCC[C@H]1c1ncc(-c2cc3cc4sc(-c5cnc([C@@H]6CCCN6C(=O)[C@@H](NC(=O)OC)C(C)C)[nH]5)cc4cc3s2)[nH]1)C(C)C	11.11
COC(=O)N[C@H](C(=O)N1CCC[C@H]1c1ncc(-c2ccc(-c3ccc(-c4cnc([C@@H]5C[C@@H](COC(F)F)CN5C(=O)[C@@H](NC(=O)OC)C(C)C)[nH]4)cc3)cc2)[nH]1)C(C)C	10.89
COC(=O)NC(C(=O)N1CCC[C@H]1c1ncc(-c2ccc3c(c2)COc2c-3ccc3cc(-c4cnc([C@@H]5CCCN5C(=O)C(NC(=O)OC)c5ccccc5)[nH]4)ccc23)[nH]1)c1ccccc1 (stereo partly shown)	10.56
COC(=O)N[C@H](C(=O)N1CCC[C@H]1c1ncc(-c2ccc3cc(-c4ccc(-c5cnc([C@@H]6CCCN6C(=O)[C@@H](OC(=O)N(C)C)c6ccccc6)[nH]5)cc4)ccc3c2)[nH]1)C(C)C	10.10
COC(=O)N[C@@H](C)C(=O)N1CCN(C(=O)OC)C[C@H]1c1ncc(-c2ccc(-c3ccc(-c4cnc([C@@H]5CCCN5C(=O)[C@@H](NC(=O)OC)C(C)C)[nH]4)cc3)cc2)[nH]1	9.65
COC(=O)N[C@H](C(=O)N1CCC[C@H]1C(=O)NCc1ccc(-c2ccc(-c3cnc([C@@H]4CCCN4C(=O)[C@@H](NC(=O)OC)C(C)C)[nH]3)cc2)cc1)C(C)C	8.85
COC(=O)N[C@H](C(=O)N1CCC[C@H]1c1ncc(C#Cc2ccc(C#Cc3cnc([C@@H]4CCCN4C(=O)[C@@H](NC(=O)OC)C(C)C)[nH]3)cc2)[nH]1)C(C)C	10.32
COC(=O)NC(C(=O)N1CCC[C@H]1c1ncc(-c2cc3c(OC)c4sc(-c5cnc([C@@H]6CCCN6C(=O)C(NC(=O)OC)c6ccccc6)[nH]5)cc4c(OC)c3s2)[nH]1)c1ccccc1 (stereo partly shown)	10.58
COC(=O)N[C@H](C(=O)N1CCC[C@H]1c1ncc(C#Cc2cccc3c(C#Cc4cnc([C@@H]5CCCN5C(=O)[C@@H](NC(=O)OC)C(C)C)[nH]4)cccc23)[nH]1)C(C)C	10.85
COC(=O)N[C@H](C(=O)N1CCC[C@H]1c1ncc(-c2ccc3cc(-c4ccc(-c5cnc([C@@H]6C[C@@H](C#N)CN6C(=O)[C@@H](NC(=O)OC)C(C)C)[nH]5)cc4)ccc3c2)[nH]1)C(C)C	11.32
COCC[C@H](NC(=O)OC)C(=O)N1CCS[C@H]1c1ncc(-c2ccc(-c3ccc4cc(-c5cnc([C@@H]6CC7(CC7)CN6C(=O)[C@@H](NC(=O)OC)C(C)C)[nH]5)ccc4c3)cc2)[nH]1	10.40
COC(=O)N[C@H](C(=O)N1CCC[C@H]1c1ncc(-c2ccc(-c3ccc(-c4cnc([C@H](C)N5CCC[C@@H](NC(=O)OC)C5=O)[nH]4)cc3)cc2)[nH]1)C(C)C	9.18

SMILES	pEC50
CC[C@H](NC(=O)OC)C(=O)N1C[C@@H](C#N)C[C@H]1c1ncc(-c2ccc3cc(-c4ccc(-c5cnc([C@@H]6CC7(CC7)CN6C(=O)[C@@H](NC(=O)OC)C(C)C)[nH]5)cc4)ccc3c2)[nH]1	10.81
COC(=O)N[C@H](C(=O)N1CCC[C@H]1c1nc2ccc(-c3ccc(-c4ccc5nc([C@@H]6CCCN6C(=O)[C@@H](NC(=O)OC)C(C)C)[nH]c5c4)cc3)cc2[nH]1)C(C)C	11.00
COC(=O)N[C@H](C(=O)N1CC2(CC2)C[C@H]1c1ncc(-c2ccc(-c3ccc(-c4ccc5nc([C@@H]6[C@H]7CC[C@H](C7)N6C(=O)[C@@H](NC(=O)OC)C(C)C)[nH]c5c4)cc3)cc2)[nH]1)C(C)C	11.24
COC(=O)N[C@H](C(=O)N1CCC[C@H]1c1ncc(-c2ccc(-c3ccc(-c4cnc(CN5CCC[C@@H](NC(=O)OC(C)(C)C)C5=O)[nH]4)cc3)cc2)[nH]1)C(C)C	10.46
COC(=O)N[C@H](C(=O)N1CCC[C@H]1c1ncc(-c2ccc(-c3cccc4c(-c5cnc([C@@H]6CCCN6C(=O)[C@@H](NC(=O)OC)C(C)C)[nH]5)cccc34)cc2)[nH]1)C(C)C	11.49
COC(=O)N[C@H](C(=O)N1CCC[C@H]1CNC(=O)c1ccc(-c2ccc(-c3cnc([C@@H]4CCCN4C(=O)[C@@H](NC(=O)OC)C(C)C)[nH]3)cc2)cc1)C(C)C	10.04
COC(=O)N[C@H](C(=O)N1CCC[C@H]1c1ncc(-c2ccc(C#Cc3ccc(-c4cnc([C@@H]5CN(CC(F)(F)F)CN5C(=O)[C@@H](NC(=O)OC)C(C)C)[nH]4)cc3)cc2)[nH]1)C(C)C	10.52
COC[C@H]1C[C@@H](c2ncc(-c3ccc(-c4ccc5cc(-c6cnc([C@@H]7CC8(CC8)CN7C(=O)[C@@H](NC(=O)OC)C(C)C)[nH]6)ccc5c4)cc3)[nH]2)N(C(=O)[C@@H](NC(=O)OC)C(C)C)C1	11.14
COC(=O)N[C@H](C(=O)N1CCC[C@H]1c1ncc(-c2ccc(-c3ccc4cc(-c5cnc([C@@H]6CCCN6C(=O)[C@H](NC(=O)OC)c6ccccc6)[nH]5)ccc4c3)cc2)[nH]1)C(C)C	11.08
COC(=O)N[C@H](C(=O)N1CCC[C@H]1c1ncc(-c2ccc(-c3ccc(-c4cnc([C@@H]5CN(C(C)=O)CN5C(=O)[C@@H](NC(=O)OC)C(C)C)[nH]4)cc3)cc2)[nH]1)C(C)C	10.07
CCC(=O)N[C@H](C(=O)N1CC2(CC2)C[C@H]1c1ncc(-c2ccc(-c3ccc(-c4cnc([C@@H]5CCCN5C(=O)[C@@H](NC(=O)OC)C(C)C)[nH]4)cc3)cc2)[nH]1)C(C)C	10.89
COC(=O)N[C@H](C(=O)N1CCC[C@H]1c1ncc(-c2ccc(-c3ccn(-c4cnc([C@@H]5CCCN5C(=O)[C@@H](NC(=O)OC)C(C)C)[nH]4)c(=O)c3)cc2)[nH]1)C(C)C	7.80
COC(=O)NC(C(=O)N1CCS[C@H]1c1nc(-c2cc3c(OC)c4sc(-c5c[nH]c([C@@H]6SCCN6C(=O)C(NC(=O)OC)c6ccccc6)n5)cc4c(OC)c3s2)c[nH]1)c1ccccc1 (stereo partly shown)	8.36
COC(=O)NC(C(=O)N1CCC[C@H]1c1ncc(-c2cc3sc(-c4ccc5nc([C@@H]6CCCN6C(=O)[C@@H](NC(=O)OC)C(C)C)[nH]c5c4)cc3s2)[nH]1)C(C)C (stereo partly shown)	10.64
COC(=O)N[C@H](C(=O)N1CCC[C@H]1c1ncc(-c2ccc(/C=C/c3ccc(-c4cnc([C@@H]5CCCN5C(=O)[C@@H](NC(=O)OC)C(C)C)[nH]4)cc3)cc2)[nH]1)C(C)C	10.58
COC(=O)N[C@@H](C(=O)N1CCC[C@@H]1c1ncc(-c2ccc3c(c2)S(=O)(=O)c2cc(-c4cnc([C@H]5CCCN5C(=O)[C@H](NC(=O)OC)C(C)C)[nH]4)ccc2-3)[nH]1)C(C)C	10.27
COC(=O)N[C@H](C(=O)N1CCC[C@H]1c1ncc(-c2ccc3cc(-c4ccc(-c5cnc([C@@H]6CCCN6C(=O)[C@H](NC(=O)OC)c6ccc(F)cc6)[nH]5)cc4)ccc3c2)[nH]1)C(C)C	10.85
COC(=O)N[C@H](C(=O)N1CCC[C@H]1c1ncc(-c2ccc(-c3ccc(-c4cnc(CN5CC(=O)N[C@@H](C(C)C)C5=O)[nH]4)cc3)cc2)[nH]1)C(C)C	9.29
COC(=O)N[C@H](C(=O)N1CC2(CC2)C[C@H]1c1ncc(-c2ccc3cc(-c4ccc(-c5cnc([C@@H]6[C@H]7CC[C@H](C7)N6C(=O)[C@@H](NC(=O)OC)C(C)(C)C)[nH]5)cc4)ccc3c2)[nH]1)C(C)C	11.05
COC(=O)N[C@H](C(=O)N1CCC[C@H]1c1ncc(-c2ccc3c(c2)oc2cc(-c4ccc5nc([C@@H]6CCCN6C(=O)[C@@H](NC(=O)OC)C(C)C)[nH]c5c4)ccc23)[nH]1)C(C)C	11.12
C=C1C[C@@H](c2ncc(-c3ccc(-c4ccc5cc(-c6cnc([C@@H]7CCCN7C(=O)[C@@H](NC(=O)OC)C(C)C)[nH]6)ccc5c4)cc3)[nH]2)N(C(=O)[C@@H](NC(=O)OC)C(C)C)C1	10.95
COC(=O)N[C@H](C(=O)N1CCC[C@H]1c1ncc(-c2ccc(-c3ccc4c(c3)C(F)(F)c3cc(-c5cnc([C@@H]6CC7(CC7)CN6C(=O)[C@@H](NC(=O)OC)C(C)C)[nH]5)ccc3-4)cc2)[nH]1)C(C)C	10.68
COC(=O)N[C@H](C(=O)N1CCC[C@H]1c1ncc(-c2ccc(-c3ccc(-c4ccc(-c5cnc([C@@H]6CCCN6C(=O)[C@@H](NC(=O)OC)C(C)C)[nH]5)cc4)cc3)cc2)[nH]1)C(C)C	10.62
